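The compound was tested at five concentrations on cells cultured in 96-well plates, with a 48-hour exposure period. GI50: concentration for 50% inhibition of growth.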 The source made the active and inactive calls. Cut-off read from the data, not from the text of the source: active = GI50 up to about 1.1 µM and inactive = higher.
Experiments:
Experiment in all cases: NCI anticancer screen, dose series, 48 h
786-0 = system: 786-0
A549 = system: A549
HCC 2998 = system: HCC 2998
HCT-15 = system: HCT-15
HL-60 = system: HL-60
IGROV-1 = system: IGROV-1
KM12 = system: KM12
MDA-MB-435 = system: MDA-MB-435
NCI-H226 = system: NCI-H226
NCI-H23 = system: NCI-H23
NCI/ADR-RES = system: NCI/ADR-RES
OVCAR-3 = system: OVCAR-3
OVCAR-5 = system: OVCAR-5
SF-295 = system: SF-295
SN12C = system: SN12C
SNB-75 = system: SNB-75
T47D = system: T47D
TK-10 = system: TK-10
UACC-257 = system: UACC-257
MCF7 = system: MCF7

| SMILES | GI50 (786-0) | GI50 (A549) | GI50 (HCC 2998) | GI50 (HCT-15) [µM] | GI50 (HL-60) | GI50 (IGROV-1) | GI50 (KM12) | GI50 (MDA-MB-435) | GI50 (NCI-H226) | GI50 (NCI-H23) | GI50 (NCI/ADR-RES) | GI50 (OVCAR-3) | GI50 (OVCAR-5) | GI50 (SF-295) | GI50 (SN12C) | GI50 (SNB-75) | GI50 (T47D) | GI50 (TK-10) | GI50 (UACC-257) | GI50 (MCF7) |
| --- | --- | --- | --- | --- | --- | --- | --- | --- | --- | --- | --- | --- | --- | --- | --- | --- | --- | --- | --- | --- |
| CN1CCc2cc(N)cc3c2C1Cc1ccc(O)c(O)c1-3 (centres undefined) | 33 µM (inactive) | 34.2 µM (inactive) | 12.6 µM (inactive) | 36.4 | 25.8 µM (inactive) | 33.7 µM (inactive) | 33.4 µM (inactive) | 36.8 µM (inactive) | 32.7 µM (inactive) | 46.8 µM (inactive) | 36.8 µM (inactive) | 27.4 µM (inactive) | 85.1 µM (inactive) | 39.8 µM (inactive) | 34.5 µM (inactive) | 40.9 µM (inactive) | 61.8 µM (inactive) | 24.7 µM (inactive) | 16.3 µM (inactive) |  |
| Nc1ccccc1OCc1cc(=O)c(OCc2ccccc2)co1 | 23.8 µM (inactive) | 71.1 µM (inactive) |  | 24.2 | 14.9 µM (inactive) |  | 6.47 µM (inactive) | 15.8 µM (inactive) |  | 39.6 µM (inactive) | 10.2 µM (inactive) | 22.9 µM (inactive) | 37.4 µM (inactive) | 10.1 µM (inactive) | 0.214 µM (active) |  | 24.2 µM (inactive) | 18.8 µM (inactive) | 14.3 µM (inactive) | 14.7 µM (inactive) |
| CC(=N/NC(N)=S)/C(C)=N/NC(N)=S | > 100 µM (inactive) | > 100 µM (inactive) | > 100 µM (inactive) | > 100 | > 100 µM (inactive) | > 100 µM (inactive) | > 100 µM (inactive) | > 100 µM (inactive) | > 100 µM (inactive) | > 100 µM (inactive) | > 100 µM (inactive) | > 100 µM (inactive) | > 100 µM (inactive) |  | > 100 µM (inactive) | > 100 µM (inactive) |  | > 100 µM (inactive) | > 100 µM (inactive) | > 100 µM (inactive) |
| O=CC12CCCN1CCC2 | > 100 µM (inactive) | > 100 µM (inactive) | > 100 µM (inactive) | > 100 |  | > 100 µM (inactive) |  | > 100 µM (inactive) | 76.4 µM (inactive) | > 100 µM (inactive) | > 100 µM (inactive) | > 100 µM (inactive) | > 100 µM (inactive) | > 100 µM (inactive) | > 100 µM (inactive) |  | > 100 µM (inactive) | > 100 µM (inactive) | > 100 µM (inactive) |  |
| BrCC[P+](c1ccccc1)(c1ccccc1)c1ccccc1 | 2.75 µM (inactive) | 1.91 µM (inactive) | 9.42 µM (inactive) | 32.7 | 2.25 µM (inactive) | 13.3 µM (inactive) | 4.8 µM (inactive) | 2.84 µM (inactive) |  |  | 6.31 µM (inactive) | 2.59 µM (inactive) | 10.8 µM (inactive) | 30.8 µM (inactive) | 1.98 µM (inactive) | 3.23 µM (inactive) | 1.27 µM (inactive) | 16.9 µM (inactive) | 3.7 µM (inactive) | 13.5 µM (inactive) |
| Fc1cc(-c2cc(-c3ccc4c(c3)OCO4)n[nH]2)c(Cl)cc1Cl | 1.84 µM (inactive) | 2.72 µM (inactive) | 4.94 µM (inactive) | 7.71 | > 100 µM (inactive) | 1.71 µM (inactive) | 3.01 µM (inactive) | 4.88 µM (inactive) | 1.99 µM (inactive) | 2.47 µM (inactive) | 3.33 µM (inactive) | 2.21 µM (inactive) | 3.28 µM (inactive) | 3.05 µM (inactive) | 2.7 µM (inactive) | 1.8 µM (inactive) | 2.2 µM (inactive) | 3 µM (inactive) | 9.82 µM (inactive) |  |
| Clc1ccc(C2=NCON=C2c2ccc(Cl)cc2)cc1 | 19.7 µM (inactive) | 31.3 µM (inactive) | 15.2 µM (inactive) | 19.4 | 14.5 µM (inactive) |  | 15.5 µM (inactive) |  | 14.5 µM (inactive) | 16.8 µM (inactive) | 21.5 µM (inactive) | 15.8 µM (inactive) | 20.1 µM (inactive) | 16.6 µM (inactive) | 19 µM (inactive) | 24.8 µM (inactive) | 0.71 µM (active) | 23.9 µM (inactive) | 25.1 µM (inactive) | 25.6 µM (inactive) |
| CCCC(CCC(=O)O)(CCC(=O)O)[N+](=O)[O-] | > 100 µM (inactive) | > 100 µM (inactive) |  | > 100 | > 100 µM (inactive) | > 100 µM (inactive) | > 100 µM (inactive) | > 100 µM (inactive) | > 100 µM (inactive) | > 100 µM (inactive) | > 100 µM (inactive) |  | > 100 µM (inactive) | > 100 µM (inactive) | > 100 µM (inactive) | > 100 µM (inactive) | > 100 µM (inactive) | > 100 µM (inactive) | > 100 µM (inactive) | > 100 µM (inactive) |
| C1CN1c1nc(N2CC2)nc(N2CC2)n1 | 2.97 µM (inactive) | 4.29 µM (inactive) | 8.87 µM (inactive) | 12.9 | 0.649 µM (active) | 14.2 µM (inactive) | 16.2 µM (inactive) | 12.6 µM (inactive) | 8.24 µM (inactive) | 2.73 µM (inactive) | 5.42 µM (inactive) | 16 µM (inactive) | 11.5 µM (inactive) | 2.37 µM (inactive) | 2.95 µM (inactive) | 5.66 µM (inactive) |  | 24 µM (inactive) | 10.7 µM (inactive) | 2.16 µM (inactive) |
| COc1ccccc1-c1cc(=O)c2ccccc2n1C1CC1 | 3.99 µM (inactive) | 2.84 µM (inactive) |  | 2.55 | 13.7 µM (inactive) | 4.43 µM (inactive) | 2.37 µM (inactive) | 3.42 µM (inactive) | 2.42 µM (inactive) | 4.99 µM (inactive) | 5.38 µM (inactive) | 1.75 µM (inactive) | 2.72 µM (inactive) | 2 µM (inactive) | 5.08 µM (inactive) |  | 2.37 µM (inactive) |  | 8.2 µM (inactive) | 1.98 µM (inactive) |
| C[N+]1(C)CCC(C#N)(c2ccccc2)CC1 | > 100 µM (inactive) | > 100 µM (inactive) | > 100 µM (inactive) | > 100 | > 100 µM (inactive) | > 100 µM (inactive) | > 100 µM (inactive) |  |  | > 100 µM (inactive) | > 100 µM (inactive) |  | > 100 µM (inactive) | > 100 µM (inactive) |  | 35.4 µM (inactive) | > 100 µM (inactive) | > 100 µM (inactive) | > 100 µM (inactive) | > 100 µM (inactive) |
| CC(=O)Nc1nc(C)c(S(=O)(=O)NC(=O)NC2NC(=O)NC2=O)s1 (centres undefined) | > 100 µM (inactive) | > 100 µM (inactive) | > 100 µM (inactive) | > 100 | > 100 µM (inactive) | > 100 µM (inactive) | > 100 µM (inactive) | > 100 µM (inactive) |  | > 100 µM (inactive) | > 100 µM (inactive) | > 100 µM (inactive) | > 100 µM (inactive) | > 100 µM (inactive) | > 100 µM (inactive) | > 100 µM (inactive) | > 100 µM (inactive) | > 100 µM (inactive) | > 100 µM (inactive) | > 100 µM (inactive) |
| Nc1ccc2nc3n(c(=O)c2c1)CCCCC3 | > 100 µM (inactive) | > 100 µM (inactive) |  | > 100 | > 100 µM (inactive) | > 100 µM (inactive) | > 100 µM (inactive) | > 100 µM (inactive) | > 100 µM (inactive) | > 100 µM (inactive) | > 100 µM (inactive) | > 100 µM (inactive) | > 100 µM (inactive) | > 100 µM (inactive) | > 100 µM (inactive) | > 100 µM (inactive) | > 100 µM (inactive) | > 100 µM (inactive) | > 100 µM (inactive) | > 100 µM (inactive) |
| N[C@H]1CCC[C@@H](O)C1O (some centres undefined) | > 100 µM (inactive) | > 100 µM (inactive) | > 100 µM (inactive) | > 100 | > 100 µM (inactive) |  | > 100 µM (inactive) | > 100 µM (inactive) |  | > 100 µM (inactive) | > 100 µM (inactive) | > 100 µM (inactive) | > 100 µM (inactive) | > 100 µM (inactive) | > 100 µM (inactive) | > 100 µM (inactive) | > 100 µM (inactive) |  | > 100 µM (inactive) | > 100 µM (inactive) |
| COc1ccc2nc3cc([N+](=O)[O-])ccc3c(Nc3ccc(S(=O)(=O)NC(C)=O)cc3)c2c1 | 47 µM (inactive) | > 100 µM (inactive) | 56.6 µM (inactive) | 71.1 | 26.5 µM (inactive) |  |  | 76.4 µM (inactive) | > 100 µM (inactive) | > 100 µM (inactive) |  | 38.1 µM (inactive) | > 100 µM (inactive) | > 100 µM (inactive) | > 100 µM (inactive) |  | > 100 µM (inactive) | 53.2 µM (inactive) | > 100 µM (inactive) | 30.8 µM (inactive) |
| CCCCCCOc1ccc(C(=O)NOC)cc1 | > 100 µM (inactive) | 66.7 µM (inactive) | > 100 µM (inactive) | > 100 | 26.9 µM (inactive) | > 100 µM (inactive) | > 100 µM (inactive) | > 100 µM (inactive) | > 100 µM (inactive) | > 100 µM (inactive) | > 100 µM (inactive) | > 100 µM (inactive) | > 100 µM (inactive) | > 100 µM (inactive) | > 100 µM (inactive) | > 100 µM (inactive) |  | > 100 µM (inactive) | > 100 µM (inactive) | > 100 µM (inactive) |

Reference: ChEMBL document CHEMBL1201862, “PubChem BioAssay data set” (2004)
